Measurements published in PMC11391043, “Revealing the pH-dependent conformational changes in sol g 2.1 protein and potential ligands binding” (Scientific Reports, 2024).

Key:
[1] = target: T1, rSol g 2.1 protein (Solenopsis geminata, UniProt A0A9E7V488); assay: Fluorescence binding assay of 1-NPN probe with rSol g 2.1 (Scatchard plots); conditions: 50 mM Tris-HCl, ± SEM, triplicate
T1 sequence (A0A9E7V488 1-119): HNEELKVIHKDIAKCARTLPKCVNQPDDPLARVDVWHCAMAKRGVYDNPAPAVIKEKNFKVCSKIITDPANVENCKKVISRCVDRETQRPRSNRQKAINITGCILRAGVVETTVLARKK
Excerpt: The FCBA is that a fluorescence probe, N-phenyl-1-naphthylamine (1-NPN, purity > 98%, Sigma Aldrich) binds with the hydrophobic binding cavity of the protein, especially with Tryptophan amino acid (Trp). Then Trp will transfer energy to 1-NPN-probe, leading to an increased emission wavelength at approximately 400 nm with dose-dependent. Besides, when the aliquot of a ligand competitor, the ligand will be competed for 1-NPN-probe, resulting in a decreased emission wavelength at 400 nm. In this study, we performed the FCBA to determine the binding activity of Sol g 2.1 protein and the potential ligands. […] Fluorescence intensity was measured using a spectrofluorometer (FluoroMax + SpectroFluorometer, Horiba Scientific) with excitation at 337 nm and emission scanning from 370 to 490 nm, at room temperature, in triplicate. The equilibrium dissociation (Kd) value was determined by plotting the fluorescence intensity at 400 nm against each 1-NPN concentration. The data were fitted to a one-site-specific binding model as follows: Y = Bmax*X/(Kd + X), where Y, X, Bmax, and Kd are the fluorescence intensity (counts/second), fluorescence probe concentration (μM), the maximum specific binding in the same units as Y, and the equilibrium dissociation constant in the same units as X.

[2] = target: T1, rSol g 2.1 protein; assay: Fluorescence competitive binding assay (FCBA), 1-NPN displacement; conditions: 2 µM rSol g 2.1, 5 µM 1-NPN
Excerpt: The FCBA is that a fluorescence probe, N-phenyl-1-naphthylamine (1-NPN, purity > 98%, Sigma Aldrich) binds with the hydrophobic binding cavity of the protein, especially with Tryptophan amino acid (Trp). Then Trp will transfer energy to 1-NPN-probe, leading to an increased emission wavelength at approximately 400 nm with dose-dependent. Besides, when the aliquot of a ligand competitor, the ligand will be competed for 1-NPN-probe, resulting in a decreased emission wavelength at 400 nm. In this study, we performed the FCBA to determine the binding activity of Sol g 2.1 protein and the potential ligands. To examine affinity binding, a stock solution of 5 mM 1-NPN in methanol (HPLC grade) was gradually added to a solution containing 2 µM rSol g 2.1 in 50 mM Tris–HCl buffer (pH 5.5 and pH 7.4) with 1% tween 20. Final concentrations of 0, 0.5, 1, 2, 4, 6, 8, 10, and 12 µM of 1-NPN were achieved, with methanol serving as a negative control. Fluorescence intensity was measured using a spectrofluorometer (FluoroMax + SpectroFluorometer, Horiba Scientific) with excitation at 337 nm and emission scanning from 370 to 490 nm, at room temperature, in triplicate. The equilibrium dissociation (Kd) value was determined by plotting the fluorescence intensity at 400 nm against each 1-NPN concentration. The data were fitted to a one-site-specific binding model as follows: Y = Bmax*X/(Kd + X), where Y, X, Bmax, and Kd are the fluorescence intensity (counts/second), fluorescence probe concentration (μM), the maximum specific binding in the same units as Y, and the equilibrium dissociation constant in the same units as X.
The potential ligands, including (E)-β-Farnesene, α-Caryophyllene, and 1-Octen-3-ol (all, Tokyo Chemical Industry (TCI), Tokyo, Japan) were used as competitors in the FCBA. For this, a mixture of 2 µM rSol g 2.1 protein and 5 µM 1-NPN in 50 mM Tris–HCl buffer (pH 5.5 and pH 7.4) with 1% tween 20 was titrated with each ligand (5 mM stock in methanol) to final concentrations of 0, 2, 4, 6, 8, 10, 12, 14, 20, 24, 28, and 32 µM. The fluorescence intensity at 400 nm for each concentration was fitted to the One Site-Fit Ki model to determine the dissociation constant of competitor ligands (Ki) as follows: logEC50 = log (10^logKi*(1 + RadioligandNM/HotKdNM))[22],[57]. Here, RadioligandNM represents the concentration of fixed 1-NPN (nM), HotKdNM represents Kd (nM), and Ki represents the equilibrium dissociation constant (Molar). All experiments were conducted in triplicate and analyzed using GraphPad Prism 9 software (San Diego, CA, USA)[22].

| SMILES | Kd ([1]; pH 5.5) [nM] | Kd ([1]; pH 7.4) [nM] | Ki ([2]; pH 5.5) [nM] | Ki ([2]; pH 7.4) [nM] |
| --- | --- | --- | --- | --- |
| c1ccc(Nc2cccc3ccccc23)cc1 [1-NPN, N-phenyl-1-naphthylamine] | 4830 ± 30 | 2330 ± 50 |  |  |
| C=CC(O)CCCCC (centres unmarked) [1-Octen-3-ol] |  |  | 5610 | 2000 |
| C=CC(=C)CC/C=C(\C)CCC=C(C)C [(E)-β-Farnesene] |  |  | 1240 | 720 |
| C/C1=C\CC/C(C)=C/CC(C)(C)/C=C/C1 [α-Caryophyllene] |  |  | 16000 | 1060 |
